As usually defined, the IC50 is the midpoint of a concentration-inhibition curve. Lower therefore signals greater potency in that assay.

Counter-ions that a name gives are not always drawn.

In the experiment the target is YKL-40 (Homo sapiens (Human), UniProt P36222). In words: YKL-40:4 assay, competitive chitin binding site AlphaScreen. The settings on record: competition with biotinylated compound 4 (20 nM), YKL-40-histag 2.5 nM. On the technique in general: In Alpha technology, singlet oxygen from a donor bead excites a nearby acceptor bead.
YKL-40, sequence (P36222 22-383): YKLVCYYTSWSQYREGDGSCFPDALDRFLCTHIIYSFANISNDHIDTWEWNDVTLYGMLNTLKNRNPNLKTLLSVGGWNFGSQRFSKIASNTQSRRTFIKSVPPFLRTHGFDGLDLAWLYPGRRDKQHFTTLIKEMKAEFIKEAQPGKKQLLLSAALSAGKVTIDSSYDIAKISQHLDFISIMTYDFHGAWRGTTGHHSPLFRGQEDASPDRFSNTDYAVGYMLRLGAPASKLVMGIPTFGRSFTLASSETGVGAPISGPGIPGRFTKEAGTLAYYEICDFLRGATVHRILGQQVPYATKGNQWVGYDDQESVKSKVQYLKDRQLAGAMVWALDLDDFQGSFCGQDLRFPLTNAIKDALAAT
In turn, `COC(=O)c1ccnc(F)c1N1CCC(N2C[C@H](C)OC[C@@H]2Cc2ccc(Cl)cc2)CC1` [compound 121, methyl 3-(4-((2S,5S)-5-(4-chlorobenzyl)-2-methylmorpholino)piperidin-1-yl)-2-fluoroisonicotinate] had an IC50 of more than 100 µM.

Compound `COC(=O)c1ccnc(N2CCC(N3C[C@H](C)OC[C@@H]3Cc3ccc(Cl)cc3)CC2)c1F` [compound 122, methyl 2-(4-((2S,5S)-5-(4-chlorobenzyl)-2-methylmorpholino)piperidin-1-yl)-3-fluoroisonicotinate] came in with an IC50 of more than 100 µM.

On to `C[C@H]1CN(C2CCN(c3c(F)cccc3F)CC2)[C@@H](Cc2ccc(Cl)cc2)CO1` [compound 123, (2S,5S)-5-(4-chlorobenzyl)-4-(1-(2,6-difluorophenyl)piperidin-4-yl)-2-methylmorpholine 2,2,2-trifluoroacetate], for which the half-inhibitory concentration (IC50) was more than 100 µM. As for `COC(=O)c1ccnc(N2CCC(N3C[C@H](C)OC[C@@H]3Cc3ccc(Cl)cc3)CC2)c1` [compound 124, methyl 2-(4-((2S,5S)-5-(4-chlorobenzyl)-2-methylmorpholino)piperidin-1-yl)isonicotinate], the IC50 is more than 100 µM.

For `C[C@H]1CN(C2CCN(c3cc(C(=O)O)ccn3)CC2)[C@@H](Cc2ccc(Cl)cc2)CO1` [compound 125, 2-(4-((2S,5S)-5-(4-chlorobenzyl)-2-methylmorpholino)piperidin-1-yl)isonicotinic acid 2,2,2-trifluoroacetate], the IC50 is more than 100 µM. The result for `C[C@H]1CN(C2CCN(c3ccccc3F)CC2)[C@@H](Cc2ccc(Cl)cc2)CO1` [compound 126, (2S,5S)-5-(4-chlorobenzyl)-4-(1-(2-fluorophenyl)piperidin-4-yl)-2-methylmorpholine 2,2,2-trifluoroacetate] reads more than 100 µM; that for `C[C@H]1CN(C2CCN(c3cccc(F)c3)CC2)[C@@H](Cc2ccc(Cl)cc2)CO1` [compound 127, (2S,5S)-5-(4-chlorobenzyl)-4-(1-(3-fluorophenyl)piperidin-4-yl)-2-methylmorpholine 2,2,2-trifluoroacetate], more than 100 µM; that for `C[C@H]1CN(C2CCN(c3nccc(C(=O)O)c3F)CC2)[C@@H](Cc2ccc(Cl)cc2)CO1` [compound 128, 2-(4-((2S,5S)-5-(4-chlorobenzyl)-2-methylmorpholino)piperidin-1-yl)-3-fluoroisonicotinic acid 2,2,2-trifluoroacetate], more than 100 µM. Regarding `C[C@H]1CN(C2CCN(c3c(C(=O)O)ccnc3F)CC2)[C@@H](Cc2ccc(Cl)cc2)CO1` [compound 129, 3-(4-((2S,5S)-5-(4-chlorobenzyl)-2-methylmorpholino)piperidin-1-yl)-2-fluoroisonicotinic acid], the IC50 is more than 100 µM. `C[C@H]1CN(C2CCN(c3cc(CO)ccn3)CC2)[C@@H](Cc2ccc(Cl)cc2)CO1` [compound 130, (2-(4-((2S,5S)-5-(4-chlorobenzyl)-2-methylmorpholino)piperidin-1-yl)pyridin-4-yl)methanol 2,2,2-trifluoroacetate]: the IC50 is more than 100 µM. `C[C@H]1CN(C2CCN(c3cc(C(C)(C)O)ccn3)CC2)[C@@H](Cc2ccc(Cl)cc2)CO1` [compound 131, 2-(2-(4-((2S,5S)-5-(4-chlorobenzyl)-2-methylmorpholino)piperidin-1-yl)pyridin-4-yl)propan-2-ol 2,2,2-trifluoroacetate] showed an IC50 of more than 100 µM. As for `C[C@H]1CN(C2CCN(c3cc(C(N)=O)ccn3)CC2)[C@@H](Cc2ccc(Cl)cc2)CO1` [compound 132, 2-(4-((2S,5S)-5-(4-chlorobenzyl)-2-methylmorpholino)piperidin-1-yl)isonicotinamide 2,2,2-trifluoroacetate], the IC50 was more than 100 µM. The compound `Cc1cccc(N2CCC(N3C[C@H](C)OC[C@@H]3Cc3ccc(Cl)cc3)CC2)n1` [compound 135, (2S,5S)-5-(4-chlorobenzyl)-2-methyl-4-(1-(6-methylpyridin-2-yl)piperidin-4-yl)morpholine hydrochloride] returned an IC50 of more than 100 µM. The same measure for `Cc1ccc(N2CCC(N3C[C@H](C)OC[C@@H]3Cc3ccc(Cl)cc3)CC2)nc1` [compound 136, (2S,5S)-5-(4-chlorobenzyl)-2-methyl-4-(1-(5-methylpyridin-2-yl)piperidin-4-yl)morpholine hydrochloride]: more than 100 µM; for `C[C@H]1CN(C2CCN(c3cc(C(F)(F)F)ncn3)CC2)[C@@H](Cc2ccc(Cl)cc2)CO1` [compound 145, (2S,5S)-5-(4-chlorobenzyl)-2-methyl-4-(1-(6-(trifluoromethyl)pyrimidin-4-yl)piperidin-4-yl)morpholine hydrochloride]: more than 100 µM. As for `C[C@H]1CN(C2CCN(c3nccc(C(F)(F)F)n3)CC2)[C@@H](Cc2ccc(Cl)cc2)CO1` [compound 146, (2S,5S)-5-(4-chlorobenzyl)-2-methyl-4-(1-(4-(trifluoromethyl)pyrimidin-2-yl)piperidin-4-yl)morpholine hydrochloride], the IC50 lay within 1 to 10 µM. The result for `O=C1COC[C@H](Cc2ccc(Cl)cc2)N1C1CCN(c2ccccn2)CC1` [compound 147, (S)-5-(4-chlorobenzyl)-4-(1-(pyridin-2-yl)piperidin-4-yl)morpholin-3-one hydrochloride] reads more than 100 µM. Compound `CN1C[C@H](Cc2ccc(Cl)cc2)N(C2CCN(c3ccccn3)CC2)CC12CCC2` [compound 148, (S)-7-(4-chlorobenzyl)-5-methyl-8-(1-(pyridin-2-yl)piperidin-4-yl)-5,8-diazaspiro[3.5]nonane hydrochloride] yielded an IC50 of 0.1 to 1 µM. `O=C1NCCN(C2CCN(c3ccccn3)CC2)[C@H]1Cc1ccc(Cl)cc1` [compound 149, (S)-3-(4-chlorobenzyl)-4-(1-(pyridin-2-yl)piperidin-4-yl)piperazin-2-one 2,2,2-trifluoroacetate] displayed an IC50 of more than 100 µM.

Consider `CC(C)C1OC[C@H](Cc2ccc(Cl)cc2)N1C1CCN(c2ccccn2)CC1` (stereo partly drawn) [compound 150, (4S)-4-(4-chlorobenzyl)-2-isopropyl-3-(1-(pyridin-2-yl)piperidin-4-yl)oxazolidine hydrochloride], for which the IC50 was more than 100 µM. Regarding `C[C@H]1CN(C2CCN(c3cncc(C(F)(F)F)n3)CC2)[C@@H](Cc2ccc(Cl)cc2)CO1` [compound 153, (2S,5S)-5-(4-chlorobenzyl)-2-methyl-4-(1-(6-(trifluoromethyl)pyrazin-2-yl)piperidin-4-yl)morpholine hydrochloride], the IC50 is more than 100 µM. `CNC(=O)[C@H]1CN(C2CCN(c3ccccn3)CC2)[C@@H](Cc2ccc(Cl)cc2)CO1` [compound 154, (2R,5S)-5-(4-chlorobenzyl)-N-methyl-4-(1-(pyridin-2-yl)piperidin-4-yl)morpholine-2-carboxamide hydrochloride] registered an IC50 of 0.1 to 1 µM.

`Clc1ccc(C[C@H]2CN3CCOC[C@H]3CN2C2CCN(c3ccccn3)CC2)cc1` [compound 155, (7S,9aR)-7-(4-chlorobenzyl)-8-(1-(pyridin-2-yl)piperidin-4-yl)octahydropyrazino[2,1-c][1,4]oxazine hydrochloride] displayed an IC50 of less than 0.1 µM. The compound `C[C@H]1CN(C2CCN(c3ccnc(Br)c3)CC2)[C@@H](Cc2ccc(Cl)cc2)CO1` [compound 156, (2S,5S)-4-(1-(2-bromopyridin-4-yl)piperidin-4-yl)-5-(4-chlorobenzyl)-2-methylmorpholine hydrochloride] displayed an IC50 of 10 to 100 µM.

The values are drawn from patent US20230278996A1, “YKL-40 INHIBITORS AND THEIR THERAPEUTIC APPLICATIONS” (Molecure S.A., priority 2022, published 2023).
